Experiments:
cholinesterase = target: T1, cholinesterase (Rattus norvegicus, UniProt P37136); experiment: Cholinesterase inhibitory activity assayed with (acetyl-[3H])-acetylcholine, S1 fraction of cerebral cortex homogenate; assay type: biochemical; settings: S1 fraction of male Wistar rat cerebral cortex homogenate; (acetyl-[3H])-acetylcholine substrate; 30 minutes incubation; read-out: Acetylcholinesterase inhibitory activity I C50
T1 construct: using the S1 fraction of a homogenate of male Wistar rat cerebral cortex as the cholinesterase source; from tissue; host or cells: male Wistar rat cerebral cortex, S1 fraction of homogenate
T1 sequence (P37136 32-614): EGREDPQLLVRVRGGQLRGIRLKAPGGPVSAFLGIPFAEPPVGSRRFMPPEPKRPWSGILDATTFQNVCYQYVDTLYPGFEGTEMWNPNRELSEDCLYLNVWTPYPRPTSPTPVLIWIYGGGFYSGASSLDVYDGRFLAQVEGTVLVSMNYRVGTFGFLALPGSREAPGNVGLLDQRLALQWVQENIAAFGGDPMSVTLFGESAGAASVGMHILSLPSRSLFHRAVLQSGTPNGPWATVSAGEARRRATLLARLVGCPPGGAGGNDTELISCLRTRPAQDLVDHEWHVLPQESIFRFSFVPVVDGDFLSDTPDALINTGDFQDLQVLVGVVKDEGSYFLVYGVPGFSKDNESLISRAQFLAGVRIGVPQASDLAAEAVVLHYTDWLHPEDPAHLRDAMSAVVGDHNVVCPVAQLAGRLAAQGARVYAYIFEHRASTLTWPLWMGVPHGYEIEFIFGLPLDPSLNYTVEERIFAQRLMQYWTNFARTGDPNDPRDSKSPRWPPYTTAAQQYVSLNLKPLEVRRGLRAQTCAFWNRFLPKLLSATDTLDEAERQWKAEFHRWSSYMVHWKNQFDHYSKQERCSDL
Experimental: The cholinesterase inhibitory activity of the compound of this invention was assayed with (acetyl-[^3H])-acetylcholine. More specifically, using the S1 fraction of a homogenate of male Wistar rat cerebral cortex as the cholinesterase source, (acetyl[^3H])-acetylcholine as the substrate and the compound of this invention as the test sample were added. The mixture was incubated for 30 minutes, then the reaction was terminated, to which was added a toluene-based scintillant, then the mixture was shaken. The reaction product [^3H]-acetic acid was transferred to the toluene layer, which was subjected to determination of cholinesterase activity by counting with a liquid scintillation counter.

serotonin (5-HT) uptake = target: T2, serotonin (5-HT) uptake (Rattus norvegicus, UniProt P31652); experiment: Monoamine uptake into crude synaptosomal preparations (P2) of cerebral cortex and hippocampus, [3H]-5-HT; assay type: biochemical, Rats
T2 construct: Crude synaptosomal preparations (P2) were isolated after differential centrifugation; from tissue; host or cells: rat cerebral cortex and hippocampus, crude synaptosomal preparation (P2)
T2 sequence (P31652 whole entry): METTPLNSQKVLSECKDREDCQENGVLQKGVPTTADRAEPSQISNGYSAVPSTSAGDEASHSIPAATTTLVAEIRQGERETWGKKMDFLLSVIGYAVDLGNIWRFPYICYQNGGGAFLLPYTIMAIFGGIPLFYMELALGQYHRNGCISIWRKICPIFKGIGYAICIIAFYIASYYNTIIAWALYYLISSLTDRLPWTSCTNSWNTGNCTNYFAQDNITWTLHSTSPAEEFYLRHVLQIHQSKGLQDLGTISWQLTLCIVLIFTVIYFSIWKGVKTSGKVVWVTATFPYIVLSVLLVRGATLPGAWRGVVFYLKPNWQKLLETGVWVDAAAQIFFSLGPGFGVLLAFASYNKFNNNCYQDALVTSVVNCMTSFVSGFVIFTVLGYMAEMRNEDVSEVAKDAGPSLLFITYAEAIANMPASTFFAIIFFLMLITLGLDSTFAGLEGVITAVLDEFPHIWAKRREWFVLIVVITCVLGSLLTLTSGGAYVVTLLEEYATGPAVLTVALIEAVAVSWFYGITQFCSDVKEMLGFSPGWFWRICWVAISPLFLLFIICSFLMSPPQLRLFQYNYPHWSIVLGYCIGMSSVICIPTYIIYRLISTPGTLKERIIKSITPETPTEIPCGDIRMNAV
Experimental: Effects of the compound of this invention on monoamine uptake were investigated using [^3H]-norepinephirine(NE) and [^3H]-serotonin (5-HT). Rats were sacrificed by decapitation. The cerebral cortex and hippocampus were removed and homogenized in 10-15 volumes (W/V) of an ice-cold medium containing 0.32 M sucrose. Crude synaptosomal preparations (P2) were isolated after differential centrifugation at 1000 x g for 10 min and 20,000 x g for 30 min at 4°C. […] Synaptosomal membrane suspension (900 µl) was preincubated with the test compound dissolved in DMSO solution at 37°C for 5 min. […] Five minutes later, the reaction was stopped by the addition of 4 ml of ice-cold KRB and the reaction mixture was filtered through Whatman GF/B. Filters were washed twice with 4 ml of KRB and the radioactivity bound was counted with liquid scintillant. […] All compounds were tested at 10^-8, 10^-7, 10^-6 and 10^-5M.

Work on `COc1ccccc1CN1CCc2ccc(C(=O)CCN3CCN(Cc4ccccc4)CC3)cc2CC1` [14-21] yielded an IC50 (cholinesterase) of 22.6 nM.

`O=C(CCN1CCN(Cc2ccccc2)CC1)c1ccc2c(c1)CCN(Cc1ccc(Cl)cc1)CC2` [14-10] showed an IC50 (cholinesterase) of 167 nM.

`O=C(CCN1CCN(Cc2ccccc2)CC1)c1ccc2c(c1)CCN(C(=O)c1ccccc1)CC2` [17-3] was tested, and the IC50 (cholinesterase) was 82.5 nM.

In the case of `Cc1ccccc1CN1CCc2ccc(C(=O)CCN3CCN(Cc4ccccc4)CC3)cc2CC1` [14-14], the IC50 (cholinesterase) is reported as 63.6 nM.

Work on `CN1CCc2ccc(C(=O)CCN3CCN(Cc4ccccc4)CC3)cc2CC1` [compound 18] yielded an IC50 (cholinesterase) of 33.8 nM.

With `O=C(CCN1CCN(Cc2ccccc2)CC1)c1ccc2c(c1)CN(Cc1ccccc1)CCC2` [14-2] the IC50 (cholinesterase) was 538 nM.

`CCN1CCc2ccc(C(=O)CCN3CCN(Cc4ccccc4)CC3)cc2CC1` [14-5] showed an IC50 (cholinesterase) of 18.8 nM.

Work on `N#Cc1ccc(CN2CCc3ccc(C(=O)CCN4CCN(Cc5ccccc5)CC4)cc3CC2)cc1` [14-19] yielded an IC50 (cholinesterase) of 33.9 nM.

For `COc1ccc(CCN2CCc3ccc(C(=O)CCN4CCN(Cc5ccccc5)CC4)cc3CC2)cc1OC` [14-36], the IC50 (cholinesterase) was 16.8 nM and the IC50 (serotonin (5-HT) uptake) was 13.3 nM.

With `Cc1ccc(CN2CCc3ccc(C(=O)CCN4CCN(Cc5ccccc5)CC4)cc3CC2)cc1` [14-23] the IC50 (cholinesterase) was 66.1 nM and the IC50 (serotonin (5-HT) uptake) was 58.3 nM.

In the case of `CC(C)CN1CCc2ccc(C(=O)CCN3CCN(Cc4ccccc4)CC3)cc2CC1` [14-33], the IC50 (cholinesterase) is reported as 34.1 nM and the IC50 (serotonin (5-HT) uptake) is reported as 55.9 nM.

In the case of `O=C(CCN1CCN(Cc2cccc(Cl)c2)CC1)c1ccc2c(c1)CCN(Cc1ccccc1)CC2` [14-7], the IC50 (serotonin (5-HT) uptake) is reported as 42.1 nM.

Molecule `O=C(CCN1CCN(Cc2ccccc2Cl)CC1)c1ccc2c(c1)CCN(Cc1ccccc1)CC2` [14-6] has an IC50 (cholinesterase) of 113 nM and an IC50 (serotonin (5-HT) uptake) of 34.5 nM.

For `Cc1cccc(CN2CCc3ccc(C(=O)CCN4CCN(Cc5ccccc5)CC4)cc3CC2)c1` [14-25], the IC50 (cholinesterase) was 69.6 nM.

With `O=C(CCN1CCN(Cc2ccccc2)CC1)c1ccc2c(c1)CNCCC2` [13-3] the IC50 (cholinesterase) was 78.9 nM.

`COc1cccc(CN2CCc3ccc(C(=O)CCN4CCN(Cc5ccccc5)CC4)cc3CC2)c1` [14-27] showed an IC50 (cholinesterase) of 133 nM.

Molecule `O=C(CCN1CCN(Cc2ccccc2)CC1)c1ccc2c(c1)CCN(Cc1cccc(F)c1)CC2` [14-20] has an IC50 (cholinesterase) of 47.8 nM.

Molecule `COc1ccc(CN2CCc3ccc(C(=O)CCN4CCN(Cc5ccccc5)CC4)cc3CC2)cc1` [14-29] has an IC50 (cholinesterase) of 25.7 nM and an IC50 (serotonin (5-HT) uptake) of 54.4 nM.

`O=C(CCN1CCN(Cc2ccccc2)CC1)c1ccc2c(c1)CCN2Cc1ccccc1` [14-1] showed an IC50 (serotonin (5-HT) uptake) of 416 nM.

With `O=C(CCN1CCN(Cc2ccccc2)CC1)c1ccc2c(c1)CCN(Cc1cccc(Cl)c1)CC2` [14-4] the IC50 (cholinesterase) was 147 nM.

In the case of `COc1ccc(CN2CCc3ccc(C(=O)CCN4CCN(Cc5ccccc5)CC4)cc3CC2)cc1OC` [14-22], the IC50 (cholinesterase) is reported as 21.5 nM.

`CC(=O)N1CCc2cc(C(=O)CCN3CCN(Cc4ccccc4)CC3)ccc21` [compound 16] showed an IC50 (cholinesterase) of 25.1 nM.

For `O=C(CCN1CCN(Cc2ccccc2)CC1)c1ccc2c(c1)CCN(CCc1ccccc1)CC2` [14-31], the IC50 (cholinesterase) was 33 nM and the IC50 (serotonin (5-HT) uptake) was 30.5 nM.
